According to article PMC10632401, “Cell-free biosynthesis combined with deep learning accelerates de novo-development of antimicrobial peptides” (Nature Communications, 2023):
In brackets after ≈: the same amount, converted by molar mass. Read-outs that look alike come from different tables or passages of the source. Residues, ends and D or L forms follow the SMILES beside them. No end group written: not given here.

Assays:
in vitro = settings: human
E. coli MG1655 = settings: MG1655, 20 h
B. subtilis PY79 = settings: PY79, 20 h
[1] = test system: A. baumannii (isolate from the human abdominal wall); settings: 20 h
[2] = test system: E. faecium (isolate from the gut of the cow); settings: 20 h
K. pneumoniae DSM 30104 = settings: DSM 30104, 20 h
S. pneumoniae D39 = settings: D39, 20 h
P. aeruginosa DSM 1117 = settings: DSM 1117, 20 h
[3] = test system: S. aureus DSM 11729 (MRSA); settings: DSM 11729, 20 h

Row | Compound | CC50 at 24 h (in vitro) [µM] | E. coli MIC (E. coli MG1655) [µM] | B. subtilis MIC (B. subtilis PY79) [µM] | MIC A. baumannii [1] [µM] | MIC E. faecium [2] [µM] | MIC K. pneumoniae (K. pneumoniae DSM 30104) [µM] | MIC S. pneumoniae (S. pneumoniae D39) [µM] | MIC P. aeruginosa (P. aeruginosa DSM 1117) [µM] | CC50 (in vitro) [µM] | CC50 [µM] | MIC S. aureus (MRSA) [3] [µM]
1 | MNNRGPLGRRFKARRKWKKFVAGKMKKKRKRFKGFKKKGGFTPFVKKFV-NH2 [AMP #3] | 68 | 12.5 | 0.8 | 6.3 | 1.6 | – | – | – | – | – | –
2 | MKQPSKTKTHFKYFLLFLKSVKKVAGFKKKKKKYHWRSYKEGSCFRKRT-NH2 [AMP #13] | 25.8 | 25.0 | 1.6 | 3.1 | 1.6 | 6.3 | 12.5 | 12.5 | – | – | –
3 | MNTTSNMIHRAVQQKRISFRAAKLTVLFLFKRRLLRRLLRHHEN-NH2 [AMP #27] | 75.7 | 12.5 | 0.4 | 2.4 | 1.6 | 6.3 | – | 12.5 | – | – | –
4 | MKLRRRLRTRMVALLVLGVLFLLMLFFIIFLRRMLMRRFRA-NH2 [AMP #26] | – | 100.0 | 37.5 | – | – | – | – | – | > 250 | – | –
5 | MRRKTPVKWKTFFKALKHKKKIFKKTFEKFKFLAKGPAFLKGFDQKLKS-NH2 [AMP #5] | 68.4 | 2.1 | 0.5 | 1.0 | 1.6 | 0.8 | 25.0 | 3.1 | – | – | –
6 | H-MCFFPRRKSKVKVKGGLCRLLFIFFKTTFCFKAKTKKEIKKGTGKKIVR-NH2 (cysteines drawn unpaired) [AMP #18] | – | 50.0 | 3.1 | – | – | – | – | – | – | 153 | –
7 | MKAKKWFESLFKTFFKKGKGIYPKSSFEKEKKTDKKKKFGGWVWFKK-NH2 [AMP #16] | 39.3 | 6.3 | 0.8 | 1.6 | 1.6 | 2.4 | – | 12.5 | – | – | –
8 | MLFGSRAKKYGKEAKQEKSFQYPKSSFVACKKKWKRSKHFFKTFKKKVS-NH2 [AMP #1] | 113 | > 100 | 0.8 | – | – | – | – | – | – | – | –
9 | MGWWFPPKTGNGAGKAFKKAAAAKWGGLFLKAAWFANKGEWGGGFPKGY-NH2 [AMP #9] | 146 | 25.0 | 3.1 | – | 6.3 | 25.0 | – | – | – | – | –
10 | H-MKEKKFFFFCFKKRRGFYKRRFFCKTTCFTYCFYKPRGTKTMPYVFSE-NH2 (cysteines drawn unpaired) [AMP #14] | – | – | – | 25.0 | 6.3 | – | – | 12.5 | – | – | 25.0
11 | CC[C@H](C)[C@H](NC(=O)[C@H](CO)NC(=O)[C@H](CO)NC(=O)[C@H](CO)NC(=O)[C@H](CCCNC(=N)N)NC(=O)[C@@H](NC(=O)[C@H](CO)NC(=O)[C@@H](N)CCSC)[C@@H](C)O)C(=O)N[C@@H](CCCNC(=N)N)C(=O)N[C@@H](CCCNC(=N)N)C(=O)N[C@@H](CC(C)C)C(=O)N[C@H](C(=O)N[C@@H](CCC(=O)O)C(=O)N[C@@H](C)C(=O)N[C@H](C(=O)N[C@@H](CCCNC(=N)N)C(=O)N[C@H](C(=O)N[C@@H](CCCNC(=N)N)C(=O)N[C@@H](Cc1ccccc1)C(=O)N[C@@H](CCCNC(=N)N)C(=O)N[C@@H](C)C(=O)N[C@@H](C)C(=O)N[C@@H](CC(C)C)C(=O)N[C@@H](CCCNC(=N)N)C(=O)N[C@H](C(=O)N[C@H](C(=O)N[C@@H](CC(C)C)C(=O)N[C@@H](Cc1ccccc1)C(=O)N[C@@H](Cc1ccccc1)C(=O)N[C@@H](C)C(=O)N[C@@H](CC(C)C)C(=O)N[C@@H](CCCNC(=N)N)C(=O)N[C@H](C(=O)N[C@H](C(=O)N[C@@H](CCCCN)C(=O)N[C@@H](CCCNC(=N)N)C(=O)N[C@@H](CCCNC(=N)N)C(=O)N1CCC[C@H]1C(=O)N[C@@H](CCCNC(=N)N)C(=O)N[C@@H](CCCNC(=N)N)C(N)=O)[C@@H](C)O)[C@@H](C)O)C(C)C)[C@@H](C)O)[C@@H](C)O)C(C)C)C(C)C [AMP #23] (H-MSTRSSSIRRLVEAVRTRFRAALRTVLFFALRTTKRRPRR-NH2) | – | 20.8 | 1.6 | – | – | – | – | – | 79.1 | – | –
12 | H-MCFCFKAGPKICRGLQRKKKKFKYQTSFTKTGFGFLTKPKSPAR-NH2 (cysteines drawn unpaired) [AMP #10] | – | 50.0 | 0.6 | – | – | – | – | – | – | 105 | –
13 | MKKKKKGILKQNNKKKKYTLFNRMVVFLFLGFIMIIFVQKYKKVIYHK-NH2 [AMP #29] | > 250 | 12.5 | 6.3 | – | – | – | – | – | – | – | –
14 | MEAFKKKPRLPLFKVKLTRFLERARGLGSYRIFEFFKKFGVKKFVSSLR-NH2 [AMP #15] | 30.7 | 25.0 | 0.8 | 1.6 | 1.6 | 1.6 | 25.0 | 12.5 | – | – | –
15 | MYLKKFLALKNSLKKLSPFKCAVKSWLKKCAEVTFYSKLLGRRGKKDGN-NH2 (cysteines drawn unpaired) [AMP #6] | 67.5 | 25.0 | 2.1 | 6.3 | 6.3 | 12.5 | – | 25.0 | – | – | –
16 | MRNFFKKTRLKYKGKKELIKKSRAFGLKTKKRSGFFFPRALKYEEEFY-NH2 [AMP #7] | 133 | > 100 | 1.6 | – | – | – | – | – | – | – | –
17 | CC[C@H](C)[C@H](NC(=O)CNC(=O)[C@@H](N)CCSC)C(=O)NCC(=O)N[C@@H](CCCCN)C(=O)N[C@@H](Cc1ccccc1)C(=O)N[C@@H](CCC(N)=O)C(=O)N[C@@H](CCCCN)C(=O)N[C@@H](CCSC)C(=O)N[C@@H](CCCNC(=N)N)C(=O)N[C@@H](Cc1ccccc1)C(=O)N[C@H](C(=O)NCC(=O)N[C@@H](C)C(=O)N[C@H](C(=O)N[C@@H](CCCNC(=N)N)C(=O)N[C@@H](C)C(=O)N[C@@H](CO)C(=O)N[C@@H](CCCCN)C(=O)NCC(=O)N[C@H](C(=O)N[C@@H](C)C(=O)N[C@@H](CCCCN)C(=O)NCC(=O)N[C@@H](CC(C)C)C(=O)N[C@@H](CC(C)C)C(=O)N[C@@H](CCCNC(=N)N)C(=O)N[C@H](C(=O)N[C@@H](C)C(=O)N[C@@H](C)C(=O)N[C@H](C(=O)N[C@@H](CCCNC(=N)N)C(=O)N[C@H](C(=O)NCC(=O)N[C@@H](CCCNC(=N)N)C(=O)N[C@@H](CCCNC(=N)N)C(=O)N[C@@H](C)C(=O)N[C@@H](CC(C)C)C(=O)N[C@H](C(=O)N[C@H](C(N)=O)[C@@H](C)O)[C@@H](C)O)[C@@H](C)O)[C@@H](C)CC)[C@@H](C)CC)C(C)C)[C@@H](C)CC)[C@@H](C)CC [AMP #21] (H-MGIGKFQKMRFIGAIRASKGVAKGLLRIAAIRTGRRALTT-NH2) | > 250 | 10.4 | 0.5 | 0.8 (≈ 3.45 µg/mL) | 6.3 (≈ 27.2 µg/mL) | 25.0 (≈ 108 µg/mL) | – | 12.5 (≈ 53.9 µg/mL) | – | – | –
18 | H-MCFCRYRFFYRRRIRFFKWGPYFYVWFGFPFGRKAFFLSVFRRRFC-NH2 (cysteines drawn unpaired) [AMP #19] | – | 25.0 | 8.4 | – | – | – | – | – | – | > 250 | –
19 | MWIKWKKPRKWGRRLKKKEKEELGDYIYLYCKVYRLFGFLPYFISKKTA-NH2 [AMP #17] | 134 | 12.5 | 6.3 | 6.3 | 6.3 | – | – | – | – | – | –
20 | H-MWFDRKKFFWPGVCLFLLFFPKRFYKKGPEKVFSFRKKYKFARKCKCKL-NH2 (cysteines drawn unpaired) [AMP #12] | – | – | – | – | 12.5 | 25.0 | – | 25.0 | – | – | –
21 | MAIRIIGRLARVRARVVARVRSRLLADDPPEDLLRVARRRKGRRWLFLS-NH2 [AMP #24] | 91.7 | 25.0 | 1.6 | – | 6.3 | – | – | – | – | – | –
22 | CC[C@H](C)[C@H](NC(=O)[C@H](CCCNC(=N)N)NC(=O)[C@H](CCCNC(=N)N)NC(=O)[C@@H](NC(=O)[C@H](C)NC(=O)[C@H](CCC(=O)O)NC(=O)[C@H](CCCCN)NC(=O)[C@H](CCCNC(=N)N)NC(=O)[C@H](CO)NC(=O)[C@H](CCCNC(=N)N)NC(=O)[C@H](CC(C)C)NC(=O)[C@@H](NC(=O)[C@H](CC(N)=O)NC(=O)[C@H](CCCNC(=N)N)NC(=O)[C@@H](NC(=O)[C@H](CCCCN)NC(=O)[C@H](CCSC)NC(=O)[C@@H](N)CCSC)[C@@H](C)CC)[C@@H](C)O)C(C)C)C(=O)N[C@@H](Cc1ccccc1)C(=O)N[C@@H](CO)C(=O)N[C@@H](CC(C)C)C(=O)N[C@@H](CCCNC(=N)N)C(=O)N[C@@H](CCCNC(=N)N)C(=O)N[C@@H](CCCNC(=N)N)C(=O)N[C@@H](CO)C(=O)N[C@H](C(=O)N[C@@H](Cc1ccccc1)C(=O)N[C@H](C(=O)N[C@@H](CCC(=O)O)C(=O)N[C@@H](CCSC)C(=O)N[C@@H](C)C(=O)N[C@@H](CCCNC(=N)N)C(=O)N[C@@H](C)C(=O)N[C@@H](Cc1ccccc1)C(=O)N[C@@H](CCCNC(=N)N)C(=O)N[C@@H](CCCNC(=N)N)C(=O)N[C@@H](Cc1ccccc1)C(=O)N[C@@H](CCCCN)C(=O)N[C@@H](C)C(=O)N[C@@H](CCCNC(=N)N)C(N)=O)[C@@H](C)O)C(C)C [AMP #28] (H-MMKIRNTLRSRKEAVRRIFSLRRRSVFTEMARAFRRFKAR-NH2) | 145 | 25.0 | 0.4 | 1.6 (≈ 8.05 µg/mL) | 3.1 (≈ 15.6 µg/mL) | 12.5 (≈ 62.9 µg/mL) | – | 25.0 (≈ 126 µg/mL) | – | – | –
